This note sets out measurements from PubChem BioAssay AID220 (DTP/NCI, 2004).

Where “and” joins values, the source holds several entries; their conditions need not be identical. Equal values may be shown once. Records with an inconclusive call do not appear.

This test relates to CD8F1 mice, subcutaneous mammary adenocarcinoma, T/C%. The test is described as follows: NCI In Vivo Anticancer Drug Screen. Data for tumor model Mammary Adenocarcinoma CD8F1 (subcutaneous) in CD8F1. To be noted: higher = larger tumour. The method, boiled down: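 Transplantable tumors were established in mice, animals were dosed with compound or vehicle, and survival or tumor size was then measured in both groups. The treated result was divided by the control result.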

The mark [1] stands for this setting: endpoint: median tumor weight (est.), dose: 50.0 mg/kg/injection, schedule: Q07DX005 (ip), vehicle: Klucel (hydroxypropylcellulose) (HPC).
Where [2] appears, read: endpoint: median tumor weight (est.), dose: 25.0 mg/kg/injection, schedule: Q07DX005 (ip), vehicle: Klucel (hydroxypropylcellulose) (HPC).
Where [3] appears, read: endpoint: median tumor weight (est.), dose: 50.0 mg/kg/injection, schedule: Q07DX005 (ip), vehicle: water.
Setting [4] is: endpoint: median tumor weight (est.), dose: 100.0 mg/kg/injection, schedule: Q07DX005 (ip), vehicle: Klucel (hydroxypropylcellulose) (HPC).

For `O=C(CCCN1CCC(O)(c2cccc(C(F)(F)F)c2)CC1)c1ccc(F)cc1`, the T/C by setting is: (endpoint: median tumor weight (est.), dose: 3.12 mg/kg/injection, schedule: Q07DX005 (ip), vehicle: Klucel (hydroxypropylcellulose) (HPC)) 116 % of control and 118 % of control; under setting [1], 55 % of control and 62 % of control.

`O=C(O)c1c2c(nc3ccccc13)Cc1ccccc1-2`: the T/C is, setting by setting: (endpoint: median tumor weight (est.), dose: 12.5 mg/kg/injection, schedule: Q07DX005 (ip), vehicle: Klucel (hydroxypropylcellulose) (HPC)) 96 % of control; (endpoint: median tumor weight (est.), dose: 12.5 mg/kg/injection, schedule: Q07DX005 (ip), vehicle: water) 6 % of control; under setting [2], 119 % of control; (endpoint: median tumor weight (est.), dose: 25.0 mg/kg/injection, schedule: Q07DX005 (ip), vehicle: water) 89 % of control; under setting [1], 98 % of control; under setting [3], 59 % of control. In addition, the T/C runs as follows: under setting [4], 97 % of control; (endpoint: median tumor weight (est.), dose: 100.0 mg/kg/injection, schedule: Q07DX005 (ip), vehicle: water) 87 % of control; (endpoint: median tumor weight (est.), dose: 200.0 mg/kg/injection, schedule: Q07DX005 (ip), vehicle: Klucel (hydroxypropylcellulose) (HPC)) 57 % of control; (endpoint: median tumor weight (est.), dose: 200.0 mg/kg/injection, schedule: Q07DX005 (ip), vehicle: water) 60 % of control.

Turning to `O=C1C=CC(=O)O1` (tested in a mixture with another compound), the T/C runs as follows: (endpoint: median tumor weight (est.), dose: 25.0 mg/kg/injection, schedule: Q07DX004 (ip), vehicle: saline) 76 % of control; (endpoint: median tumor weight (est.), dose: 50.0 mg/kg/injection, schedule: Q07DX004 (ip), vehicle: saline) 61 % of control; (endpoint: median tumor weight (est.), dose: 100.0 mg/kg/injection, schedule: Q07DX004 (ip), vehicle: saline) 40 % of control; (endpoint: median tumor weight (est.), dose: 200.0 mg/kg/injection, schedule: Q07DX004 (ip), vehicle: saline) 81 % of control; (endpoint: median tumor weight (est.), dose: 400.0 mg/kg/injection, schedule: Q07DX004 (ip), vehicle: saline) 94 % of control.

`Nc1n[n+](-c2ccccc2)no1`: the T/C reads like this: (endpoint: median tumor weight (est.), dose: 3.12 mg/kg/injection, schedule: Q07DX005 (ip), vehicle: water) 82 % of control; under setting [3], 10 % of control and 34 % of control; (endpoint: median tumor weight change, dose: 16.0 mg/kg/injection, schedule: Q01DX001 (ip), vehicle: water) 39 % of control; (endpoint: median tumor weight change, dose: 31.0 mg/kg/injection, schedule: Q01DX001 (ip), vehicle: water) 70 % of control; (endpoint: median tumor weight change, dose: 62.0 mg/kg/injection, schedule: Q01DX001 (ip), vehicle: water) 35 % of control.

Consider `COC(=O)[C@@]12OC[C@]34[C@H]([C@@H](O)[C@@H]1O)[C@@]1(C)CC(=O)C(O)=C(C)[C@@H]1C[C@H]3OC(=O)[C@H](OC(=O)/C=C(\C)C(C)C)[C@@H]24`, for which the T/C is, setting by setting: (endpoint: median tumor weight (est.), dose: 0.25 mg/kg/injection, schedule: Q07DX005 (ip), vehicle: saline + alcohol) 99 % of control; (endpoint: median tumor weight (est.), dose: 0.5 mg/kg/injection, schedule: Q07DX005 (ip), vehicle: saline + alcohol) 92 % of control; (endpoint: median tumor weight (est.), dose: 1.0 mg/kg/injection, schedule: Q07DX005 (ip), vehicle: saline + alcohol) 104 % of control; (endpoint: median tumor weight change, dose: 1.0 mg/kg/injection, schedule: Q01DX001 (ip), vehicle: saline + alcohol) 85 % of control; (endpoint: median tumor weight change, dose: 2.0 mg/kg/injection, schedule: Q01DX001 (ip), vehicle: saline + alcohol) 81 % of control; (endpoint: median tumor weight change, dose: 4.0 mg/kg/injection, schedule: Q01DX001 (ip), vehicle: saline + alcohol) 93 % of control.

Take `O=C1NC(=O)C2C3C=CC(C12)C1C2C(=O)NC(=O)C2C31` (stereo not drawn): the T/C is, setting by setting: (endpoint: median tumor weight change, dose: 18.0 mg/kg/injection, schedule: Q01DX005 (ip), vehicle: water) 62 % of control; (endpoint: median tumor weight change, dose: 30.0 mg/kg/injection, schedule: Q01DX005 (ip), vehicle: water) 17 % of control; (endpoint: median tumor weight change, dose: 50.0 mg/kg/injection, schedule: Q01DX005 (ip), vehicle: water) -5 % of control; (endpoint: median tumor weight change, dose: 54.0 mg/kg/injection, schedule: Q01DX001 (ip), vehicle: saline) 64 % of control; (endpoint: median tumor weight change, dose: 62.0 mg/kg/injection, schedule: Q01DX001 (ip), vehicle: saline with Tween-80) 70 % of control; (endpoint: median tumor weight change, dose: 62.5 mg/kg/injection, schedule: Q01DX001 (ip), vehicle: saline with Tween-80) 78 % of control. For the same compound, the T/C is 30 % of control (endpoint: median tumor weight change, dose: 90.0 mg/kg/injection, schedule: Q01DX001 (ip), vehicle: saline); 15 % of control and 27 % of control (endpoint: median tumor weight change, dose: 125.0 mg/kg/injection, schedule: Q01DX001 (ip), vehicle: saline with Tween-80); -25 % of control (endpoint: median tumor weight change, dose: 250.0 mg/kg/injection, schedule: Q01DX001 (ip), vehicle: saline with Tween-80).

Consider `COc1cc(NCCCCCCCNC(C)C)c2nccc(C)c2c1`, for which the T/C was 70 % of control (endpoint: median tumor weight change, dose: 31.25 mg/kg/injection, schedule: Q01DX001 (ip), vehicle: saline) and 72 % of control (endpoint: median tumor weight change, dose: 62.5 mg/kg/injection, schedule: Q01DX001 (ip), vehicle: saline).

Consider `CCc1ccccc1N1CCN(C(=O)c2cc(OC)c(OC)c(OC)c2)CC1`, for which the T/C was 68 % of control (endpoint: median tumor weight (est.), dose: 12.5 mg/kg/injection, schedule: Q07DX003 (ip), vehicle: Klucel (hydroxypropylcellulose) (HPC)); 50 % of control (endpoint: median tumor weight (est.), dose: 12.5 mg/kg/injection, schedule: Q07DX004 (ip), vehicle: Klucel (hydroxypropylcellulose) (HPC)); 167 % of control and 269 % of control (endpoint: median tumor weight (est.), dose: 50.0 mg/kg/injection, schedule: Q04DX005 (ip), vehicle: Klucel (hydroxypropylcellulose) (HPC)); 182 % of control (endpoint: median tumor weight (est.), dose: 50.0 mg/kg/injection, schedule: Q07DX003 (ip), vehicle: Klucel (hydroxypropylcellulose) (HPC)); 152 % of control and 206 % of control (endpoint: median tumor weight (est.), dose: 100.0 mg/kg/injection, schedule: Q04DX005 (ip), vehicle: Klucel (hydroxypropylcellulose) (HPC)); 112 % of control (endpoint: median tumor weight (est.), dose: 100.0 mg/kg/injection, schedule: Q07DX003 (ip), vehicle: Klucel (hydroxypropylcellulose) (HPC)). In addition, the T/C is, setting by setting: (endpoint: median tumor weight (est.), dose: 100.0 mg/kg/injection, schedule: Q07DX004 (ip), vehicle: Klucel (hydroxypropylcellulose) (HPC)) 274 % of control; (endpoint: median tumor weight (est.), dose: 200.0 mg/kg/injection, schedule: Q07DX003 (ip), vehicle: Klucel (hydroxypropylcellulose) (HPC)) 111 % of control; (endpoint: median tumor weight (est.), dose: 400.0 mg/kg/injection, schedule: Q04DX005 (ip), vehicle: Klucel (hydroxypropylcellulose) (HPC)) 44 % of control; (endpoint: median tumor weight (est.), dose: 400.0 mg/kg/injection, schedule: Q07DX003 (ip), vehicle: Klucel (hydroxypropylcellulose) (HPC)) 36 % of control.

For `S=c1nc[nH]c2nc[nH]c12`, the T/C is 42 % of control (endpoint: mean tumor weight (est.), dose: 135.0 mg/kg/injection, schedule: Q07DX005 (ip), vehicle: sodium bicarbonate); 16 % of control (endpoint: mean tumor weight, dose: 15.0 mg/kg/injection, schedule: Q01DX009 (ip), vehicle: saline); 5 % of control (endpoint: mean tumor weight, dose: 30.0 mg/kg/injection, schedule: Q01DX009 (ip), vehicle: saline); 98 % of control (endpoint: mean tumor weight, dose: 35.0 mg/kg/injection, schedule: Q07DX007 (ip), vehicle: saline); 14 % of control (endpoint: mean tumor weight, dose: 60.0 mg/kg/injection, schedule: Q01DX009 (ip), vehicle: saline); 57 % of control (endpoint: mean tumor weight, dose: 67.5 mg/kg/injection, schedule: Q07DX005 (ip), vehicle: saline). The T/C is, setting by setting: (endpoint: mean tumor weight, dose: 67.5 mg/kg/injection, schedule: Q07DX006 (ip), vehicle: sodium bicarbonate) 49 % of control; (endpoint: mean tumor weight, dose: 67.5 mg/kg/injection, schedule: Q07DX007 (ip), vehicle: saline) 81 % of control; (endpoint: mean tumor weight, dose: 135.0 mg/kg/injection, schedule: Q07DX005 (ip), vehicle: saline) 37 % of control; (endpoint: median tumor weight (est.), dose: 4.0 mg/kg/injection, schedule: Q07DX005 (ip), vehicle: saline) 73 % of control; (endpoint: median tumor weight (est.), dose: 6.25 mg/kg/injection, schedule: Q07DX005 (ip), vehicle: Klucel (hydroxypropylcellulose) (HPC)) 78 % of control; (endpoint: median tumor weight (est.), dose: 8.0 mg/kg/injection, schedule: Q07DX005 (ip), vehicle: saline) 78 % of control. The T/C is 350 % of control (endpoint: median tumor weight (est.), dose: 16.0 mg/kg/injection, schedule: Q07DX005 (ip), vehicle: saline); 80 % of control under setting [2]; 78 % of control (endpoint: median tumor weight (est.), dose: 32.0 mg/kg/injection, schedule: Q07DX005 (ip), vehicle: saline); 48 % of control under setting [1]; 101 % of control (endpoint: median tumor weight (est.), dose: 64.0 mg/kg/injection, schedule: Q07DX005 (ip), vehicle: saline); 17 % of control under setting [4]. The T/C (endpoint: median tumor weight (est.), dose: 128.0 mg/kg/injection, schedule: Q07DX005 (ip), vehicle: saline) is 28 % of control.
